Data from EP0930314A1, “p-TOLUENESULFONATE HYDRATE OF THIAZOLINE COMPOUND” (TAISHO PHARMACEUTICAL CO. LTD, priority 1996, dated 1998).

Assays:
[1] = test system: Blood platelet aggregation; test: Human in vitro blood platelet aggregation inhibition test (ADP-induced, PRP); assay type: cell-based; conditions: ADP final concentration 7 µM, concentration to inhibit the maximum aggregation by 50 %
Method: Citrated blood (the volume ratio of 3.13 % sodium citrate solution to blood is 1:9) was collected from the cubital vein of a healthy human who had not been received any drugs known to affect the function of blood platelet within 2 weeks prior to starting the test. The blood was centrifuged at 120 x g at room temperature for 15 minutes to give platelet rich plasma (PRP) as a supernatant, and further centrifuged at 1500 x g for 10 minutes to give platelet poor plasma (PPP) as a supernatant.
The blood platelet counts of PRP were adjusted to 50 ― 60 x 10^4/µL by diluting with PPP.
Blood platelet aggregation was monitored according to the method of Born G.V.R., [Nature, vol. 194, page 927 (1962)] using adenosine diphosphate (produced by Sigma Co.; hereinafter referred to as "ADP") as an aggregation-inducing substance. That is, a solution of Compound 1 or dihydrate of the compound of Formula (1) as a test drug in dimethyl sulfoxide was adjusted to the desired concentration with a physiological saline solution. […] The mixture was monitored for 5 minutes by using a blood platelet aggregation ability measurement apparatus (Aggricoda TM · PA-3210; made by Kyoto Daiichi Kagaku Co.) and the concentration of the test drug to inhibit the maximum aggregation by 50 % was calculated.

[2] = target: T1, Purified GPIIb/IIIa receptor (Homo sapiens, UniProt P05106+P08514); test: Fibrinogen receptor (GPIIb/IIIa) binding inhibition test (solid-phase, ELISA detection of bound fibrinogen); conditions: inhibition of fibrinogen (2 µg/ml) binding to solid phased purified GPIIb/IIIa, 4°C, 16 hours
T1 construct: from tissue; the cited Pytela method purifies the receptor from platelet extracts (own knowledge)
Method: Purified GPIIb/IIIa was prepared by referring to the methods of Pytela et al (Science, 231 (1986) 1559) and a binding measurement system of solid phased GPIIb/IIIa was carried out by referring to the method of Kouns et al (Blood, 80 (1992) 2539).
Purified GPIIb/IIIa receptor was solidified on 96-well microtiter plates by reacting in a solution (pH 7.4) containing 20 mM Tris-hydrochloric acid, 150 mM sodium chloride, 1 mM calcium chloride, 1 mM magnesium chloride and 0.0005 % Triton X-100 at 4°C for 16 hours. The solid phase was then washed once with a solution (pH 7.4) containing 20 mM Tris-hydrochloric acid, 150 mM sodium chloride, 1 mM calcium chloride, 1 mM magnesium chloride and 0.05 % Tween 20 (Buffer B), and blocked by a solution (pH 7.4) containing 20 mM Tris-hydrochloric acid, 150 mM sodium chloride, 1 mM calcium chloride, 1 mM magnesium chloride and 25 % Block Ace in an amount of 150 µL/well at room temperature for 2 hours. […] The amount of the fibrinogen bound to the plates was measured by an enzyme-linked immunosorbent assay method using antifibrinogen primary antibody and peroxidase-labelled secondary antibody to calculate IC50 value. […]

[3] = Hygroscopicity test (change rate of weight after storage at defined relative humidity); assay type: physicochemical; conditions: statement in words; test at 25°C, storage for 30 days, numeric data only in Fig 1
Method: Compound 1 obtained in the above example and dihydrate of the compound of Formula (1) were used as test drugs. About 100 mg of the test drug was taken into a weighing bottle and weighed accurately. The weighed test drug in the weighing bottle was stored at 25°C in a decicator which was adjusted to the defined relative humidity by using a desired saturated salt solution or a thermo-hygrostat (Tabaiestec SH-220) which was adjusted to the proper relative humidity.
After storage for 30 days, the test drug was weighed, and the change rate of weight was calculated to use as an index of hygroscopicity.

T1 sequence (P08514 32-887 limits assumed): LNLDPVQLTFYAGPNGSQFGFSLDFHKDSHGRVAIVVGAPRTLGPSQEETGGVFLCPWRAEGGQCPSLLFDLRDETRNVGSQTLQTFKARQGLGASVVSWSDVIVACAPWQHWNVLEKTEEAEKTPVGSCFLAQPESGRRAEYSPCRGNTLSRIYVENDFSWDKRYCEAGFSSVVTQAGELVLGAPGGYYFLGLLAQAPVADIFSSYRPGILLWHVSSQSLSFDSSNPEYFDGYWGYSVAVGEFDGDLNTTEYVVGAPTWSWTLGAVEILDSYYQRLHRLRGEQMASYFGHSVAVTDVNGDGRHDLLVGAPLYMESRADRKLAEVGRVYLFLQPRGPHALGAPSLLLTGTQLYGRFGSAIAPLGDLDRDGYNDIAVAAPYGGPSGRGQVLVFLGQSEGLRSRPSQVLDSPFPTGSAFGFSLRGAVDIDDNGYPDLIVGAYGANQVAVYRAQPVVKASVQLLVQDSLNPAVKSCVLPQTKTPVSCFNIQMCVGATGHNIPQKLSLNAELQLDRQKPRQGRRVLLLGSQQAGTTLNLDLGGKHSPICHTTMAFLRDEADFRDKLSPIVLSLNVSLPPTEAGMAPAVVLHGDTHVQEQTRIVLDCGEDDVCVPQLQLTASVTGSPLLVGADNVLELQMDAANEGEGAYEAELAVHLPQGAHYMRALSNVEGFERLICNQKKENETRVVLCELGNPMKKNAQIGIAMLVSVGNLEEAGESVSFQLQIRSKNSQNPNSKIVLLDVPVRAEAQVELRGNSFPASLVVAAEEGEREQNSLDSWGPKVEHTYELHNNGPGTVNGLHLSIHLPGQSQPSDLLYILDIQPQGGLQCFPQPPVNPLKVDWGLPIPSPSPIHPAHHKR
T1 sequence (P08514 891-1039 limits assumed): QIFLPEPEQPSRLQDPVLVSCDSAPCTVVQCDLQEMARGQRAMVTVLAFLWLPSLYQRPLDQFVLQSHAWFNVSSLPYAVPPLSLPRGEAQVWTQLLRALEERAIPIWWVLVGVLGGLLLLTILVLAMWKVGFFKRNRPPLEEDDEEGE
T1 sequence (P05106 27-788): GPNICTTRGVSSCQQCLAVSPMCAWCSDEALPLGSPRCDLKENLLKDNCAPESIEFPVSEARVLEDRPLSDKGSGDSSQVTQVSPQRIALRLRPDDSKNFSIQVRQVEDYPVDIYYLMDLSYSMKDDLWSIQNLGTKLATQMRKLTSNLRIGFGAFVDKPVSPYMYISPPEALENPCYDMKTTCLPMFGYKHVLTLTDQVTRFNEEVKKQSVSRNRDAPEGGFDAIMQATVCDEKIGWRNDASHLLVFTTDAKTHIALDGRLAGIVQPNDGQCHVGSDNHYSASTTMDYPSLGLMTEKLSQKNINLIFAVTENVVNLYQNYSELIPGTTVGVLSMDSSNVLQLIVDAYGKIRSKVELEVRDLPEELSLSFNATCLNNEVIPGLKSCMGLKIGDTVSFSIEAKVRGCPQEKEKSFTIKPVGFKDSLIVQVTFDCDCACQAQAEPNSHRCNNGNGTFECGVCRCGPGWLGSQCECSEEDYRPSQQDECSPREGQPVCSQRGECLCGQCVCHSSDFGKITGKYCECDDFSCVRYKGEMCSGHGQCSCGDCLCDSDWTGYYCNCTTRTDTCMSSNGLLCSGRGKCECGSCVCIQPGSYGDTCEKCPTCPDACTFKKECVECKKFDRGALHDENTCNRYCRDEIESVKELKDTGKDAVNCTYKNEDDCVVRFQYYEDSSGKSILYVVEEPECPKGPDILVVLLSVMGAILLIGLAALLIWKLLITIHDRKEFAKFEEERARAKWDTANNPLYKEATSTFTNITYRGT

Compound	IC50 [1]	IC50 [2]	IC50 ([1]; Homo sapiens, Platelet)	hygroscopicity [3]
Cc1c(C(=O)NCCC(=O)O)sc(=NC(=O)c2ccc(C(=N)N3CCC4(CC3)OCCO4)cc2)n1C [Dihydrate of the compound of Formula (1), reference compound]	21.1 nM	–	–	–
Cc1c(C(=O)NCCC(=O)O)sc(=NC(=O)c2ccc(C(=N)N3CCC4(CC3)OCCO4)cc2)n1C [Compound 1, N-(2-carboxyethyl)-2-{4-[(4,4-ethylenedioxy)piperidin-1-yl]imidoylbenzoylimino}-3,4-dimethyl-3H-thiazoline-5-carboxamide p-toluenesulfonate dihydrate]	–	0.0805 nM	22.1 nM	non-hygroscopic
